As a reminder, the IC50 is the concentration that inhibits the measured activity by half.

Holding throughout (format): functional, cell-based
The test system of experiment [1] is HepG2. In words: Antiproliferative activity against human HepG2 cells assessed as reduction in cell viability measured for 24 hrs by MTT assay. The settings on record: HepG2, 24 h.
Experiment [2] relates to HeLa. The experiment is described as follows: Antiproliferative activity against human HeLa cells assessed as reduction in cell viability measured for 24 hrs by MTT assay.
Experiment [3] concerns ASPC1. In words: Antiproliferative activity against human ASPC1 cells assessed as reduction in cells assessed as reduction in cell growth incubated for 72 hrs by MTT assay. The settings on record: ASPC1, 72 h. In general terms: Formazan colour is commonly taken as a measure of viable cells.
The test system of experiment [4] is HCT-116. In words: Antiproliferative activity against human HCT-116 cells assessed as reduction in cells assessed as reduction in cell growth incubated for 72 hrs by MTT assay. The settings on record: HCT-116, 72 h.
Experiment [5] has as its system NCI-H1975. The experiment is described as follows: Antiproliferative activity against human NCI-H1975 cells assessed as reduction in cells assessed as reduction in cell growth incubated for 72 hrs by MTT assay. To be noted: NCI-H1975, 72 h.
Experiment [6] has as its system A-431. The experiment is described as follows: Antiproliferative activity against human A-431 cells assessed as reduction in cells assessed as reduction in cell growth incubated for 72 hrs by MTT assay. To be noted: A-431, 72 h.
Experiment [7] has as its system A549. In words: Antiproliferative activity against human A549 cells assessed as reduction in cells assessed as reduction in cell growth incubated for 72 hrs by MTT assay. To be noted: A549, 72 h.

Regarding `C[C@@H](CO)CC[C@H]1O[C@H]2C[C@H]3[C@@H]4CC=C5C[C@@H](OC6=C(Cl)C(=O)c7ccccc7C6=O)CC[C@]5(C)[C@H]4CC[C@]3(C)[C@H]2[C@@H]1C`, the figures for the IC50 in experiment [1] and in experiment [2] were 3.85 µM and 3.7 µM, respectively.
Regarding `C[C@@H]1CC[C@@]2(OC1)O[C@H]1C[C@H]3[C@@H]4CC=C5C[C@@H]([N+](C)(C)CC#N)CC[C@]5(C)[C@H]4CC[C@]3(C)[C@H]1[C@@H]2C`, the IC50 turned out to be 19.3 µM in experiment [3], 9.74 µM in experiment [4], 20.6 µM in experiment [5] and 8.25 µM in experiment [6].
In the case of `C[C@@H]1CC[C@@]2(OC1)O[C@H]1C[C@H]3[C@@H]4CC=C5C[C@@H]([N+](C)(CC6CC6)CC6CC6)CC[C@]5(C)[C@H]4CC[C@]3(C)[C@H]1[C@@H]2C`, the IC50 in experiment [3] worked out at 4.07 µM; in experiment [4], 1.12 µM; in experiment [5] it was 5.32 µM; in experiment [7] it was 2.69 µM; in experiment [6] it was 4.71 µM.
With `C[C@@H]1CC[C@@]2(OC1)O[C@H]1C[C@H]3[C@@H]4CC=C5C[C@@H](OC(=O)CCCC[N+]6(C)CCOCC6)CC[C@]5(C)[C@H]4CC[C@]3(C)[C@H]1[C@@H]2C`, the half-maximal inhibitory concentration (IC50) was determined as 8.48 µM in experiment [3], 5.45 µM in experiment [5], 5.83 µM in experiment [7] and 5.88 µM in experiment [6].
Consider `Cc1ccc2c(n1)C(=O)C(Cl)=C(O[C@H]1CC[C@@]3(C)C(=CC[C@H]4[C@@H]5C[C@@H]6O[C@H](CC[C@@H](C)CO[Si](C)(C)C(C)(C)C)[C@@H](C)[C@@H]6[C@@]5(C)CC[C@@H]43)C1)C2=O`, for which the results for the IC50 in experiment [1] and in experiment [2] were 3.55 µM and 9.69 µM, respectively.
In the case of `C#CC[N+](C)(CC#C)[C@H]1CC[C@@]2(C)C(=CC[C@H]3[C@@H]4C[C@@H]5O[C@]6(CC[C@@H](C)CO6)[C@@H](C)[C@@H]5[C@@]4(C)CC[C@@H]32)C1`, the IC50 in experiment [3] was determined as 4.41 µM; in experiment [4], 4.71 µM; in experiment [5] it was 5.92 µM; in experiment [7], 12.7 µM; in experiment [6], 14.5 µM.
Consider `C[C@@H]1CC[C@@]2(OC1)O[C@H]1C[C@H]3[C@@H]4CC=C5C[C@@H](OC(=O)CCCC[N+](C)(C)Cc6ccccc6)CC[C@]5(C)[C@H]4CC[C@]3(C)[C@H]1[C@@H]2C`, for which the IC50 came to 7.12 µM in experiment [3], 1.51 µM in experiment [5], 5.3 µM in experiment [7] and 1.85 µM in experiment [6].
Consider `C[C@@H]1CC[C@@]2(OC1)O[C@H]1C[C@H]3[C@@H]4CC=C5C[C@@H](OC(=O)CCCC[N+]6(C)CCCCC6)CC[C@]5(C)[C@H]4CC[C@]3(C)[C@H]1[C@@H]2C`, for which the IC50 in experiment [3] came to 2.83 µM; in experiment [5] it was 5.08 µM; in experiment [7], 5.83 µM; in experiment [6], 3.03 µM.
`C=C[N+](C)(C=C)[C@H]1CC[C@@]2(C)C(=CC[C@H]3[C@@H]4C[C@@H]5O[C@]6(CC[C@@H](C)CO6)[C@@H](C)[C@@H]5[C@@]4(C)CC[C@@H]32)C1`: the IC50 stood at 4.06 µM in experiment [3]; 5 µM in experiment [4]; 5.96 µM in experiment [5]; 6.64 µM in experiment [7]; 4.01 µM in experiment [6].
For the compound `Cc1ccc2c(c1)C(=O)C(Cl)=C(OC[C@H](C)CC[C@H]1O[C@H]3C[C@H]4[C@@H]5CC=C6C[C@@H](OC7=C(Cl)C(=O)c8cc(C)ccc8C7=O)CC[C@]6(C)[C@H]5CC[C@]4(C)[C@H]3[C@@H]1C)C2=O`, the IC50 in experiment [1] worked out at 9.18 µM; in experiment [2], 14.5 µM.
On to `C[C@@H]1CC[C@@]2(OC1)O[C@H]1C[C@H]3[C@@H]4CC=C5C[C@@H]([N+](C)(C/C=C/c6ccccc6)C/C=C/c6ccccc6)CC[C@]5(C)[C@H]4CC[C@]3(C)[C@H]1[C@@H]2C`, for which the IC50 in experiment [3] was less than 5 µM; in experiment [4], 0.34 µM; in experiment [5], 5.73 µM; in experiment [7] it was 9.86 µM; in experiment [6], less than 2.5 µM.
Consider `C[C@@H]1CC[C@@]2(OC1)O[C@H]1C[C@H]3[C@@H]4CC=C5C[C@@H]([N+](C)(CCO)CCO)CC[C@]5(C)[C@H]4CC[C@]3(C)[C@H]1[C@@H]2C`, for which the IC50 was determined as 17.8 µM in experiment [3], 11.5 µM in experiment [4], 5.35 µM in experiment [7] and 3.26 µM in experiment [6].
`CCCC[N+](C)(C)CCCCC(=O)O[C@H]1CC[C@@]2(C)C(=CC[C@H]3[C@@H]4C[C@@H]5O[C@]6(CC[C@@H](C)CO6)[C@@H](C)[C@@H]5[C@@]4(C)CC[C@@H]32)C1`: the half-maximal inhibitory concentration (IC50) in experiment [3] was 2.77 µM; in experiment [5], 3.68 µM; in experiment [7], 2.81 µM; in experiment [6], 3.11 µM.
For `C[C@@H]1CC[C@@]2(OC1)O[C@H]1C[C@H]3[C@@H]4CC=C5C[C@@H](OC(=O)CCCC[N+]6(C)CCCC6)CC[C@]5(C)[C@H]4CC[C@]3(C)[C@H]1[C@@H]2C`, in that order: 2.15 µM, 3.44 µM, 4.47 µM and 4.05 µM.
As for `COCC[N+](C)(CCOC)[C@H]1CC[C@@]2(C)C(=CC[C@H]3[C@@H]4C[C@@H]5O[C@]6(CC[C@@H](C)CO6)[C@@H](C)[C@@H]5[C@@]4(C)CC[C@@H]32)C1`, the IC50 in experiment [3] was 55.3 µM; in experiment [4], greater than 1 µM; in experiment [5], 5.09 µM; in experiment [7], 6.33 µM; in experiment [6], 2.85 µM.
On to `C[C@@H]1CC[C@@]2(OC1)O[C@H]1C[C@H]3[C@@H]4CC=C5C[C@@H](OC(=O)CCCC[N+]6(CCO)CCOCC6)CC[C@]5(C)[C@H]4CC[C@]3(C)[C@H]1[C@@H]2C`, for which the IC50 in experiment [3] is 11.1 µM; in experiment [5], 3.36 µM; in experiment [7], 12.6 µM; in experiment [6], 6.21 µM.
For `C=CC[N+](CC=C)(CC=C)CCCCC(=O)O[C@H]1CC[C@@]2(C)C(=CC[C@H]3[C@@H]4C[C@@H]5O[C@]6(CC[C@@H](C)CO6)[C@@H](C)[C@@H]5[C@@]4(C)CC[C@@H]32)C1`, in that order: 1.23 µM, 0.78 µM, 1.84 µM and 2.55 µM.
With `CCCC[N+](C)(CCCC)[C@H]1CC[C@@]2(C)C(=CC[C@H]3[C@@H]4C[C@@H]5O[C@]6(CC[C@@H](C)CO6)[C@@H](C)[C@@H]5[C@@]4(C)CC[C@@H]32)C1`, the IC50 in experiment [3] is less than 5 µM; in experiment [4], 1.03 µM; in experiment [5], 6.39 µM; in experiment [7], 2.42 µM; in experiment [6], 3.87 µM.
As to `C[C@@H]1CC[C@@]2(OC1)O[C@H]1C[C@H]3[C@@H]4CC=C5C[C@@H]([N+](C)(CCCCN6C(=O)c7ccccc7C6=O)CCCCN6C(=O)c7ccccc7C6=O)CC[C@]5(C)[C@H]4CC[C@]3(C)[C@H]1[C@@H]2C`, the IC50 was found to be 4.78 µM in experiment [3]; 3.23 µM in experiment [4]; 9.17 µM in experiment [5]; 10.7 µM in experiment [7]; 4.33 µM in experiment [6].
In the same order, the values of `C[C@@H]1CC[C@@]2(OC1)O[C@H]1C[C@H]3[C@@H]4CC=C5C[C@@H]([N+](C)(C)C)CC[C@]5(C)[C@H]4CC[C@]3(C)[C@H]1[C@@H]2C` are 9.44 µM, 9.67 µM, 19 µM, 15.2 µM and 6.38 µM.
With `CC[N+](CC)(CC)CCCCC(=O)O[C@H]1CC[C@@]2(C)C(=CC[C@H]3[C@@H]4C[C@@H]5O[C@]6(CC[C@@H](C)CO6)[C@@H](C)[C@@H]5[C@@]4(C)CC[C@@H]32)C1`, the IC50 amounted to 6.56 µM in experiment [3], 3.23 µM in experiment [5], 2.52 µM in experiment [7] and 3.46 µM in experiment [6].
On to `C[C@@H]1CC[C@@]2(OC1)O[C@H]1C[C@H]3[C@@H]4CC=C5C[C@@H](OC(=O)CCCC[N+](C)(C)c6ccccc6)CC[C@]5(C)[C@H]4CC[C@]3(C)[C@H]1[C@@H]2C`, for which the IC50 in experiment [3] is 4.18 µM; in experiment [5], 4.05 µM; in experiment [7], 6.63 µM; in experiment [6] it was 3.52 µM.
As for `C[C@@H]1CC[C@@]2(OC1)O[C@H]1C[C@H]3[C@@H]4CC=C5C[C@@H](OC(=O)CCCC[N+]6(CCO)CCCCC6)CC[C@]5(C)[C@H]4CC[C@]3(C)[C@H]1[C@@H]2C`, the IC50 in experiment [3] amounted to 6.07 µM; in experiment [5] it was 1.68 µM; in experiment [7], 4.68 µM; in experiment [6], 4.14 µM.
For the compound `C[C@@H](CO)CC[C@H]1O[C@H]2C[C@H]3[C@@H]4CC=C5C[C@@H](OC6=C(Cl)C(=O)c7ncccc7C6=O)CC[C@]5(C)[C@H]4CC[C@]3(C)[C@H]2[C@@H]1C`, the IC50 in experiment [2] is 6.36 µM.
Consider `C[C@@H]1CC[C@@]2(OC1)O[C@H]1C[C@H]3[C@@H]4CC=C5C[C@@H](OC(=O)CCCC[N+]67CCC(CC6)C(O)C7)CC[C@]5(C)[C@H]4CC[C@]3(C)[C@H]1[C@@H]2C` (some centres undefined), for which the IC50 turned out to be 4.46 µM in experiment [3], 1.68 µM in experiment [5], 4.07 µM in experiment [7] and 4.14 µM in experiment [6].
Consider `C[C@@H]1CC[C@@]2(OC1)O[C@H]1C[C@H]3[C@@H]4CC=C5C[C@@H]([N+]6(C)CCCC6)CC[C@]5(C)[C@H]4CC[C@]3(C)[C@H]1[C@@H]2C`, for which the IC50 in experiment [3] was 5.54 µM; in experiment [4] it was 3.94 µM; in experiment [5], 11.2 µM; in experiment [7], 10.5 µM; in experiment [6], 10.4 µM.

The record behind these values is ChEMBL document CHEMBL6127100, “Plant based steroidal and triterpenoid sapogenins: Chemistry on diosgenin and biological aspects” (Eur J Med Chem, 2024).
